Columns and labels:
Experiment in all cases: relative viability (nuclei count vs DMSO), 5 days (fraction); higher = more cells survive
[1] = compound: CC(C)(C)c1nc(-c2cccc(NS(=O)(=O)c3c(F)cccc3F)c2F)c(-c2ccnc(N)n2)s1 [Dabrafenib] + CC(C)C[C@H](NC(=O)[C@H](Cc1ccccc1)NC(=O)c1cnccn1)B(O)O [Bortezomib] (partner 0.002 µM)
In short: (§1)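 Lung cancer cell lines were seeded in 1536-well plates and dosed by pin tool the next day, with either a single drug or a fixed anchor-drug dose combined with five library-drug doses (not always all listed) spaced in √10 steps. Five days later, one step fixed the cells and stained their nuclei (final 0.05% Triton X-100, 1% formaldehyde, 1 ug/ml Hoechst), and nuclei were counted on 4× images. Relative viability is the nuclei count in treated wells divided by the count in vehicle wells, and each value is the median of duplicate plates.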

[2] = compound: CC(C)(C)c1nc(-c2cccc(NS(=O)(=O)c3c(F)cccc3F)c2F)c(-c2ccnc(N)n2)s1 [Dabrafenib] + Cc1nc(Nc2ncc(C(=O)Nc3c(C)cccc3Cl)s2)cc(N2CCN(CCO)CC2)n1 [Dasatinib] (partner 0.075 µM)
In short: as §1

[3] = compound: NC(=O)c1ccc(N(C(N)=O)c2c(F)cccc2F)nc1-c1ccc(F)cc1F [VX-702] + CC(=O)Nc1cccc(-n2c(=O)n(C3CC3)c(=O)c3c(Nc4ccc(I)cc4F)n(C)c(=O)c(C)c32)c1 [Trametinib] (partner 0.02 µM)
In short: as §1

[4] = compound: NC(=O)c1ccc(N(C(N)=O)c2c(F)cccc2F)nc1-c1ccc(F)cc1F [VX-702] + COc1cc2c(Oc3ccc(NC(=O)C4(C(=O)Nc5ccc(F)cc5)CC4)cc3F)ccnc2cc1OCCCN1CCOCC1 [Foretinib] (partner 0.25 µM)
In short: as §1

Cell Line	relative viability ([1]; first compound 0.003 µM)	relative viability ([1]; first compound 0.009487 µM)	relative viability ([1]; first compound 0.03 µM)	relative viability ([1]; first compound 0.09487 µM)	relative viability ([1]; first compound 0.3 µM)	relative viability ([2]; first compound 0.003 µM)	relative viability ([2]; first compound 0.009487 µM)	relative viability ([2]; first compound 0.03 µM)	relative viability ([2]; first compound 0.09487 µM)	relative viability ([2]; first compound 0.3 µM)	relative viability ([3]; first compound 0.02 µM)	relative viability ([3]; first compound 0.6325 µM)	relative viability ([3]; first compound 2 µM)	relative viability ([4]; first compound 0.02 µM)	relative viability ([4]; first compound 0.2 µM)	relative viability ([4]; first compound 0.6325 µM)	relative viability ([4]; first compound 2 µM)	relative viability ([3]; first compound 0.2 µM)
H3255	0.703	0.858	0.997	0.642	1.09	0.285	0.425	0.341	0.421	0.377	0.488	0.581	0.662	1.01	0.781	0.89	0.855	–
NCI-H838	0.74	0.973	0.417	0.715	1.09	0.254	0.287	–	0.364	0.279	0.535	0.525	0.6	1.02	1.01	1.13	1.2	0.521
NCI-H1993	1.2	1.46	1.31	1.24	1.7	0.627	0.665	0.607	0.845	0.856	0.607	0.527	0.576	0.717	0.773	0.754	0.693	0.495
SK-MES-1	–	–	–	–	–	0.323	0.412	0.417	0.317	0.289	0.546	0.481	0.523	0.935	0.97	0.934	0.911	0.52
NCI-H661	0.647	0.868	0.437	0.719	0.789	0.591	0.821	1.04	0.921	1.06	0.682	0.637	0.71	1.11	1.08	1.12	1.1	0.599
NCI-H1650	0.183	0.214	0.24	0.177	0.217	0.263	0.376	0.425	0.327	0.378	0.599	0.656	0.501	1.04	1.17	1.02	1.29	0.725
ABC-1	–	0.292	0.265	0.31	0.288	0.64	0.531	–	0.58	0.799	–	–	–	1.24	0.968	0.859	1.33	–
LU99A	1.16	0.99	1.15	1.1	0.887	0.662	0.569	0.423	0.464	0.41	0.563	0.512	0.5	0.871	0.677	0.786	0.721	0.532
ChaGo-K-1	–	0.816	1.01	0.983	1.11	0.477	0.487	0.56	0.586	0.559	0.948	0.859	0.844	0.867	0.892	0.893	0.901	0.903
NCI-H2170	–	–	–	–	–	0.597	0.483	0.53	0.618	0.544	0.999	0.958	0.987	1.07	1	1.08	1.03	0.891
